Laboratory results from US20020052295A1, “Diacyl derivatives of propylene diamine having herbicidal activity” (priority 1999, published 2002).

Key:
[1] = test system: SOLNI; test: Pre-emergence herbicidal activity on SOLNI (black nightshade); assay type: in vivo, Solanum nigrum; details: greenhouse
Method in brief: (§1)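 Seeds sown on sterilized fertilized topsoil in pots, covered to level, then compound in 50:50 acetone/water sprayed on soil surface. Greenhouse 30/21 °C day/night, 0.64 cm overhead irrigation, then mist/subirrigation. Percent inhibition vs untreated plants scored ~14 days after treatment; GR80 derived, highest rate typically 1000 g/ha.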

[2] = test system: SORHA; test: Pre-emergence herbicidal activity on SORHA (johnsongrass, seedling); assay type: in vivo, Sorghum halepense; details: greenhouse
Method in brief: as §1

[3] = test system: CHEAL; test: Pre-emergence herbicidal activity on CHEAL (common lambsquarters); assay type: in vivo, Chenopodium album; details: greenhouse
Method in brief: as §1

[4] = test system: SETFA; test: Pre-emergence herbicidal activity on SETFA (giant foxtail); assay type: in vivo, Setaria faberi; details: greenhouse
Method in brief: as §1

[5] = test system: dicotyledonous species; test: Greenhouse post-emergence test in combination with glyphosate, dicotyledonous species; assay type: in vivo
From the text: (§2) A pre-prepared topsoil mixture (described above) was placed in a pot and compacted to a depth of 1.0 to 1.25 cm from the top of the pot. Seeds of each of several monocotyledonous and dicotyledonous annual plant species were placed on top of the soil The seeds were covered with a mixture of 50% topsoil and 50% Rediearth™ in sufficient quantity to level-fill the pots. The pots were then placed on a greenhouse bench and subirrigated as needed until plants growing from the seeds had emerged and reached a suitable growth stage for post-emergence treatment, typically 9 to 14 days after planting.
(§3) A known amount of each test compound dissolved or suspended in an appropriate organic solvent was diluted with a 50:50 mix of acetone and water and applied to the plants by spraying with a standard spray nozzle in a spray volume of 3,100 l/ha at a spray pressure of […] (30 psig). Control plants were not sprayed.
(§4) After treatment the plants were placed in a greenhouse with a 30/21° C. day/night temperature regime and were subsequently watered as needed for growth. Approximately 14 days after treatment, the plants were observed and herbicidal efficacy recorded as percent inhibition by comparison with control plants.
(§5) In a greenhouse post-emergence test conducted according to the procedure described hereinabove, R-2-fluoro-3-trifluoromethyl-N-[1-methyl-2-(3-trifluoromethyl)phenylcarbonylamino]ethylbenzamide (the compound of Example 13) was applied at 0, 64, 125 and 250 g/ha in combination with glyphosate isopropylammonium salt at 1000 g a.e./ha. The glyphosate herbicide alone gave 72% control of dicotyledonous species and 84% control of monocotyledonous species. […] At 250 g/ha, addition of the compound of Example 13 gave 93% control of dicotyledonous species, but reduced control of monocotyledonous species to 73%.

[6] = test system: CONAR; test: Pre-emergence herbicidal activity on CONAR (field bindweed); assay type: in vivo, Convolvulus arvensis; details: greenhouse
Method in brief: as §1

[7] = test system: CIRAR; test: Pre-emergence herbicidal activity on CIRAR (canada thistle, seedling); assay type: in vivo, Cirsium arvense; details: greenhouse
Method in brief: as §1

[8] = test system: ABUTH; test: Pre-emergence herbicidal activity on ABUTH (velvetleaf); assay type: in vivo, Abutilon theophrasti; details: greenhouse
Method in brief: as §1

[9] = test system: monocotyledonous species; test: Greenhouse post-emergence test in combination with glyphosate, monocotyledonous species; assay type: in vivo
From the text: as §2, §3, §4, §5

[10] = test system: POROL; test: Pre-emergence herbicidal activity on POROL (common purslane); assay type: in vivo, Portulaca oleracea; details: greenhouse
Method in brief: as §1

[11] = test system: DATST; test: Pre-emergence herbicidal activity on DATST (jimsonweed); assay type: in vivo, Datura stramonium; details: greenhouse
Method in brief: as §1

[12] = test system: DIGSA; test: Pre-emergence herbicidal activity on DIGSA (large crabgrass); assay type: in vivo, Digitaria sanguinalis; details: greenhouse
Method in brief: as §1

[13] = test system: BRAPP; test: Pre-emergence herbicidal activity on BRAPP (broadleaf signalgrass); assay type: in vivo, Brachiaria platyphylla; details: greenhouse
Method in brief: as §1

[14] = test system: monocotyledonous and dicotyledonous annual plant species; test: Greenhouse pre-emergence test, all species of the test taken together; assay type: in vivo
From the text: All such uses, and the biological activity enabling such uses, are embraced by the term “herbicidal” herein. […] Where herbicidal activity was evident but 80% inhibition was not achieved at the highest rate tested (typically 1000 g/ha), an asterisk (*) is shown in the following tables. Herbicidal activity evident in the form of symptoms of phytotoxicity, in the absence of at least 80% inhibition at any rate, is indicated in the tables by “phyto”. A blank cell in the following tables indicates no herbicidal or phytotoxic response at any rate tested.
The pre-emergence tests were conducted by the following procedure. Topsoil was sieved to pass through a 1.27 cm screen. Fertilizer was added to the topsoil and the mixture was then sterilized by heating. The topsoil mixture was placed in a pot and compacted to a depth of 1.0 to 1.25 cm from the top of the pot. Seeds of each of several monocotyledonous and dicotyledonous annual plant species were placed on top of the soil. Additional soil was subsequently placed over the seeds to level-fill the pot. A known amount of each test compound dissolved or suspended in an appropriate organic solvent was diluted with a 50:50 mix of acetone and water and applied to the surface of the soil. After treatment the plants were placed in a greenhouse with a 30/21° C. day/night temperature regime where they received 0.64 cm of overhead irrigation. All subsequent watering consisted of a light overhead mist and/or subirrigation as needed for germination and growth.
Pre-emergence herbicidal activity of the compound of Example 5, a racemic mixture of R- and S-enantiomers of N,N′-(1,2-propanediylbis)-3-(trifluoromethyl) benzamide, was compared with that of the individual R- and S-enantiomers, the compounds of Examples 5a and 5b respectively. The procedure was exactly as described above. Rates tested were 1000, 650, 300, 200, 100, 65, 30 and 10 g/ha.
In a greenhouse pre-emergence test conducted according to the procedure described hereinabove, R—N,N′-(1,2-propanediylbis)-3-(trifluoromethyl)benzamide (the compound of Example 5a) was applied at 200 g/ha and acetochlor was applied at 100 g/ha, both individually and in combination.
In the same greenhouse pre-emergence test, R-2-fluoro-3-trifluoromethyl-N-[1-methyl-2-(3-trifluoromethyl)phenylcarbonylamino]ethylbenzamide (the compound of Example 13) was applied at 100 g/ha and acetochlor was applied at 100 g/ha, both individually and in combination.

[15] = test system: AMARE; test: Pre-emergence herbicidal activity on AMARE (redroot pigweed); assay type: in vivo, Amaranthus retroflexus; details: greenhouse
Method in brief: as §1

[16] = test system: SORVU; test: Pre-emergence herbicidal activity on SORVU (shattercane); assay type: in vivo, Sorghum vulgare; details: lowest tested rate giving 80% or greater inhibition, approx. 14 days after planting and treating, greenhouse
Method in brief: as §1

[17] = test system: PANDI; test: Pre-emergence herbicidal activity on PANDI (fall panicum); assay type: in vivo, Panicum dichotomiflorum; details: greenhouse
Method in brief: as §1

[18] = test system: ECHCG; test: Pre-emergence herbicidal activity on ECHCG (barnyardgrass); assay type: in vivo, Echinochloa crus-galli; details: lowest tested rate giving 80% or greater inhibition, approx. 14 days after planting and treating, greenhouse
Method in brief: as §1

[19] = test system: PANMI; test: Pre-emergence herbicidal activity on PANMI (wild proso millet); assay type: in vivo, Panicum miliaceum; details: greenhouse
Method in brief: as §1

[20] = lowest tested rate giving 80% or greater inhibition, approx. 14 days after planting and treating
[21] = Example 13 at 64 g/ha in combination with glyphosate isopropylammonium salt 1000 g a.e./ha
[22] = Example 13 at 125 g/ha in combination with glyphosate isopropylammonium salt 1000 g a.e./ha
[23] = Example 13 at 250 g/ha in combination with glyphosate isopropylammonium salt 1000 g a.e./ha

C[C@H](CNC(=O)c1cccc(C(F)(F)F)c1)NC(=O)c1cccc(C(F)(F)F)c1F [Example 13, R-2-fluoro-3-trifluoromethyl-N-[1-methyl-2-(3-trifluoromethyl)phenylcarbonylamino]ethylbenzamide]
Percent control by pre-emergence application, SOLNI ([1]; applied alone at 100 g/ha): 45% | Pre-emergence activity (GR80) on SOLNI [1, 20]: 125 g/ha | Percent control by pre-emergence application, SORHA ([2]; applied alone at 100 g/ha): 7% | Pre-emergence activity (GR80) on SORHA [2, 20]: 500 g/ha | Percent control by pre-emergence application, CHEAL ([3]; applied alone at 100 g/ha): 95% | Pre-emergence activity (GR80) on CHEAL [3, 20]: 64 g/ha | Percent control by pre-emergence application, SETFA ([4]; applied alone at 100 g/ha): 25% | Pre-emergence activity (GR80) on SETFA [4, 20]: 125 g/ha | control of dicotyledonous species [5, 21]: 85% | control of dicotyledonous species [5, 22]: 95% | control of dicotyledonous species [5, 23]: 93% | Percent control by pre-emergence application, CONAR ([6]; applied alone at 100 g/ha): 38% | Pre-emergence activity (GR80) on CONAR [6, 20]: 750 g/ha | Percent control by pre-emergence application, CIRAR ([7]; applied alone at 100 g/ha): 25% | Pre-emergence activity (GR80) on CIRAR [7, 20]: 64 g/ha | Percent control by pre-emergence application, ABUTH ([8]; applied alone at 100 g/ha): 2% | Pre-emergence activity (GR80) on ABUTH [8, 20]: 250 g/ha | control of monocotyledonous species [9, 21]: 89% | control of monocotyledonous species [9, 22]: 89% | control of monocotyledonous species [9, 23]: 73% | Percent control by pre-emergence application, POROL ([10]; applied alone at 100 g/ha): 100% | Pre-emergence activity (GR80) on PORAL [10, 20]: 64 g/ha | Percent control by pre-emergence application, DATST ([11]; applied alone at 100 g/ha): 12% | Pre-emergence activity (GR80) on DATST [11, 20]: 125 g/ha | Percent control by pre-emergence application, DIGSA ([12]; applied alone at 100 g/ha): 43% | Pre-emergence activity (GR80) on DIGSA [12, 20]: 125 g/ha | Percent control by pre-emergence application, BRAPP ([13]; applied alone at 100 g/ha): 4% | Pre-emergence activity (GR80) on BRAPP [13, 20]: 500 g/ha | herbicidal activity of the combination compared with expectation ([14]; Example 13 100 g/ha + acetochlor 100 g/ha, at least on ABUTH, DATST, SOLNI and PANMI): greater than expected herbicidal activity | number of the 14 species showing >85% control ([14]; Example 13 100 g/ha in combination with acetochlor 100 g/ha): 10 | number of the 14 species showing >85% control ([14]; Example 13 alone at 100 g/ha): 3 | Percent control by pre-emergence application, AMARE ([15]; applied alone at 100 g/ha): 86% | Pre-emergence activity (GR80) on AMARE [15, 20]: 64 g/ha | Pre-emergence activity (GR80) on SORVU [16]: 1000 g/ha | Percent control by pre-emergence application, PANDI ([17]; applied alone at 100 g/ha): 40% | Pre-emergence activity (GR80) on PANDI [17, 20]: 250 g/ha | Pre-emergence activity (GR80) on ECHCG [18]: 500 g/ha | Percent control by pre-emergence application, PANMI ([19]; applied alone at 100 g/ha): 5% | Pre-emergence activity (GR80) on PANMI [19, 20]: 500 g/ha
